In PMC4598324, “Crystal structures of Bbp from Staphylococcus aureus reveal the ligand binding mechanism with Fibrinogen α” (Protein & Cell, 2015):
Where no end group is shown, it is not given here.

Experiments:
[1] = target: Bone sialoprotein-binding protein (Bbp) residues 273-598 (N2 and N3 domains) (S. aureus) (UniProt Q14U76); assay: ITC; 500 μmol/L peptide in the syringe titrated into 50 μmol/L Bbp^273−598 in the cell; 25°C; 200 mmol/L NaCl, 20 mmol/L HEPES pH 7.5; Microcal iTC200
Bbp^T582A = target: T1, Bbp^T582A (Staphylococcus aureus, UniProt Q14U76, T582A); assay: Surface plasmon resonance (SPR), immobilized mutant T582A; details: BIAcore T200, T582A mutant immobilized on CM5 chip (3375RU), peptide 62.5 to 0.976 μmol/L in 200 mmol/L NaCl, 20 mmol/L HEPES (pH 7.5), 30 μL/min, binding 60 s, dissociation 120 s
T1 construct: The fragment of the Bbp gene (corresponding to 273–598 aa) was amplified; GST (pGEX-6p-1) (N); made in house; host or cells: Escherichia coli BL21
T1 sequence (Q14U76 273-598 T582A): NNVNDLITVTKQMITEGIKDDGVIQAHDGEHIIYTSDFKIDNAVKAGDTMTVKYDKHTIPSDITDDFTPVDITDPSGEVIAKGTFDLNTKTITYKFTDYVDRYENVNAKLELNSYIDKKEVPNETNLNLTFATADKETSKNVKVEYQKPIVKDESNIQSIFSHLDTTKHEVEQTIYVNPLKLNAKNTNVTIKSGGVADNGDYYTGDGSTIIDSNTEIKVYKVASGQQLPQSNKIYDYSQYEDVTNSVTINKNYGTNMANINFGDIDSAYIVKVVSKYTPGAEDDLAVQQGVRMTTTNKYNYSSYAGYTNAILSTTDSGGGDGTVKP
Description: (§1) Figure 5 SPR analyses of the interactions between Bbp ^273−598 WT and mutants (T582A and L584A) and the Fg α ^561−575 (A–C), respectively. The proteins were immobilized on a BIA-core sensor chip.
(§2) The fragment of the Bbp gene (corresponding to 273–598 aa) was amplified using S. aureus ATCC 25923 genomic DNA by PCR. The gene fragments of mutated proteins Bbp^T582A and Bbp^L584A followed the same protocol. After digestion with BamHI and XhoI (NEB), the amplified fragments were cloned into the prokaryotic expression vector pGEX-6p-1 (GE Healthcare Life Sciences) to produce the GST-Bbp fusion protein and were confirmed by DNA sequencing. The recombinant protein was expressed in Escherichia coli strain BL21 with a high yield.
(§3) The peptide corresponding to the fibrinogen α^561−575 was synthesized as previously described (Vazquez et al., [2011]).
(§4) The interaction affinities between Fg α^561−575 and Bbp^273−598 protein were conducted by surface plasmon resonance (SPR) using BIAcore T200 instrument (GE Healthcare). The wild type Bbp^273−598 protein and two mutants were immobilized, respectively, on a CM5 sensor chip in 10 mmol/L sodium acetate, pH 4.5. The immobilization level was 3375RU. The synthetic peptide in 200 mmol/L NaCl and 20 mmol/L HEPES (pH 7.5) was injected on the protein-coated surface at various concentrations at 30 μL/min. The binding and dissociation was 60 s and 120 s, respectively.

Bbp^L584A = target: T2, Bbp^L584A (Staphylococcus aureus, UniProt Q14U76, L584A); assay: Surface plasmon resonance (SPR), immobilized mutant L584A; details: BIAcore T200, L584A mutant immobilized on CM5 chip (3375RU), peptide 62.5 to 0.976 μmol/L in 200 mmol/L NaCl, 20 mmol/L HEPES (pH 7.5), 30 μL/min, binding 60 s, dissociation 120 s
T2 construct: The fragment of the Bbp gene (corresponding to 273–598 aa) was amplified; GST (pGEX-6p-1) (N); made in house; host or cells: Escherichia coli BL21
T2 sequence (Q14U76 273-598 L584A): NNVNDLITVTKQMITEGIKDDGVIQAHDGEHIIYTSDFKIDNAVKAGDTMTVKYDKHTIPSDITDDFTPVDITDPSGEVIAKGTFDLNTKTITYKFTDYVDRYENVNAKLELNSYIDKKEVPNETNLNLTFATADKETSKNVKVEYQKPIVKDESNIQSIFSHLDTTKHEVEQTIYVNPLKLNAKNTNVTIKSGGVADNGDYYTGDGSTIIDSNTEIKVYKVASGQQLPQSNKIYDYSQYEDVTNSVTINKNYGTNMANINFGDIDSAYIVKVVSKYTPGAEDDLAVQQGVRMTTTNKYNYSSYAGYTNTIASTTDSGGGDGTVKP
Description: as §1, §2, §3, §4

Bbp^273−598 = target: T3, Bbp^273−598 (Staphylococcus aureus, UniProt Q14U76); assay: Isothermal titration calorimetry (ITC), Fg α^561−575 titrated into Bbp^273−598; assay type: binding; details: 25°C, Microcal iTC200, cell 50 μmol/L Bbp^273−598, syringe 500 μmol/L peptide, 200 mmol/L NaCl, 20 mmol/L HEPES pH 7.5, first peak not used for analysis
T3 construct: covering residues Asn^273–Pro^598 of Bbp from S. aureus; GST (cleaved; GPLGS remains at the N-terminus) (N, cleaved yes); made in house; host or cells: Escherichia coli BL21
T3 sequence (Q14U76 273-598): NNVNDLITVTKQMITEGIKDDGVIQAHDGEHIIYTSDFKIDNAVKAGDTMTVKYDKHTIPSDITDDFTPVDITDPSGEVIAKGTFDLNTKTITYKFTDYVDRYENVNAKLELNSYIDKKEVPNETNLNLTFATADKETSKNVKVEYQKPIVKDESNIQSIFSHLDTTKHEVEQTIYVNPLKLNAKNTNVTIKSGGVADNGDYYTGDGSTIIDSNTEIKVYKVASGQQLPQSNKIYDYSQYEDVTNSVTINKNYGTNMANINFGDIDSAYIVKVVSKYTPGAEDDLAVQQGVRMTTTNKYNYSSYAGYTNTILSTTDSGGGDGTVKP
Description: as §2
The recombinant protein was firstly purified by GST-affinity column and digested with PreScission protease overnight. The eluant was collected and concentrated for further purification using gel filtration chromatography (Superdex-200 column, GE Healthcare) in buffer containing 20 mmol/L HEPES pH 7.5, 200 mmol/L NaCl, 2 mmol/L DTT on the FPLC system (GE Healthcare Life Sciences). The proteins in every step of purification were analyzed by SDS-PAGE.
as §3
ITC experiments were carried out at 25°C using a Microcal iTC200 instrument (GE Healthcare). […] The data were fitted and analyzed using the Origin 7 software package (Microcal).

[2] = target: T4, Bone sialoprotein-binding protein (Bbp) residues 273-598 (N2 and N3 domains) (S. aureus, UniProt Q14U76 273-598); assay: SPR
T4 chain: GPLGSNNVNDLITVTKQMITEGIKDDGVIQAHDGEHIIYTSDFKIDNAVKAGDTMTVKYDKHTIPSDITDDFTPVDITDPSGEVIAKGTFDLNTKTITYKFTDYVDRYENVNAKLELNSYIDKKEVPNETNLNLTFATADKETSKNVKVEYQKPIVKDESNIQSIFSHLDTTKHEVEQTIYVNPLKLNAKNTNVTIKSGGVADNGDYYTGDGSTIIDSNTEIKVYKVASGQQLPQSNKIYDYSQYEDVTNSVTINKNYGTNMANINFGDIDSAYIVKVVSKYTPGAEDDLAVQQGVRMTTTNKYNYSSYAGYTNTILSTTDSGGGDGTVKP

Molecule: Fibrinogen α chain peptide, residues 561-575
- Kd [1]: 290 nM

Molecule: SKQFTSSTSYNRGDS [Fg α^561−575]
- Kd (Bbp^T582A): 537 nM
- Kd (Bbp^L584A): 456 nM
- Kd (Bbp^273−598): 290 nM

Molecule: SKQFTSSTSYNRGDS [Fibrinogen α chain peptide, residues 561-575]
- Kd [2]: 1620 nM
